Data reported in PubChem BioAssay (NCI).
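These data come from cells grown in 96-well plates and exposed to compound for 48 hours at five concentrations. GI50 is the concentration that inhibits growth by half. TGI is the concentration that stops growth completely.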

Assays:
Experiment in all cases: NCI anticancer screen, dose series, 48 h
T-47D breast = test system: T-47D breast
HOP-92 NSCLC = test system: HOP-92 NSCLC
UO-31 renal = test system: UO-31 renal
K-562 leukemia = test system: K-562 leukemia
EKVX NSCLC = test system: EKVX NSCLC
NCI/ADR-RES ovarian = test system: NCI/ADR-RES ovarian
OVCAR-8 ovarian = test system: OVCAR-8 ovarian
CAKI-1 renal = test system: CAKI-1 renal
SK-MEL-28 melanoma = test system: SK-MEL-28 melanoma
SK-MEL-5 melanoma = test system: SK-MEL-5 melanoma
CCRF-CEM leukemia = test system: CCRF-CEM leukemia
UACC-62 melanoma = test system: UACC-62 melanoma
MALME-3M melanoma = test system: MALME-3M melanoma
LOX IMVI melanoma = test system: LOX IMVI melanoma
786-0 renal = test system: 786-0 renal
MCF7 breast = test system: MCF7 breast
SF-539 CNS = test system: SF-539 CNS
ACHN renal = test system: ACHN renal
UACC-257 melanoma = test system: UACC-257 melanoma
OVCAR-4 ovarian = test system: OVCAR-4 ovarian
A549 NSCLC = test system: A549 NSCLC
NCI-H460 lung = test system: NCI-H460 lung
KM12 colon = test system: KM12 colon
NCI-H23 lung = test system: NCI-H23 lung
RPMI-8226 leukemia = test system: RPMI-8226 leukemia
TK-10 renal = test system: TK-10 renal
OVCAR-3 ovarian = test system: OVCAR-3 ovarian
HL-60(TB) leukemia = test system: HL-60(TB) leukemia
RXF 393 renal = test system: RXF 393 renal
SW-620 colon = test system: SW-620 colon
HOP-62 NSCLC = test system: HOP-62 NSCLC
SF-268 CNS = test system: SF-268 CNS
SNB-19 CNS = test system: SNB-19 CNS
HCC-2998 colon = test system: HCC-2998 colon
NCI-H522 lung = test system: NCI-H522 lung
COLO 205 colon = test system: COLO 205 colon
MDA-MB-435 = test system: MDA-MB-435
M14 melanoma = test system: M14 melanoma
HCT-116 colon = test system: HCT-116 colon
SN12C renal = test system: SN12C renal
MOLT-4 leukemia = test system: MOLT-4 leukemia
HS 578T breast = test system: HS 578T breast
SF-295 CNS = test system: SF-295 CNS
PC-3 prostate = test system: PC-3 prostate
IGROV1 ovarian = test system: IGROV1 ovarian
MDA-MB-231 breast = test system: MDA-MB-231 breast
HT29 colon = test system: HT29 colon
DU-145 prostate = test system: DU-145 prostate
U251 CNS = test system: U251 CNS
HCT-15 colon = test system: HCT-15 colon
SK-OV-3 ovarian = test system: SK-OV-3 ovarian
OVCAR-5 ovarian = test system: OVCAR-5 ovarian
SR leukemia = test system: SR leukemia
SK-MEL-2 melanoma = test system: SK-MEL-2 melanoma
NCI-H226 lung = test system: NCI-H226 lung
BT-549 breast = test system: BT-549 breast
SNB-75 CNS = test system: SNB-75 CNS
A498 renal = test system: A498 renal

`COc1ccc2c(C3=C(c4cn(C)c5ccccc45)C(=O)NC3=O)coc2c1` was tested, and the GI50 (T-47D breast) was 430 nM, the TGI (T-47D breast) was 45500 nM and the GI50 (HOP-92 NSCLC) was 21300 nM. The TGI (HOP-92 NSCLC) was 44500 nM, the GI50 (UO-31 renal) was 468 nM and the TGI (UO-31 renal) was 23500 nM. The GI50 (K-562 leukemia) was 99.7 nM, the TGI (K-562 leukemia) was > 100000 nM and the GI50 (EKVX NSCLC) was 593 nM. The TGI (EKVX NSCLC) was > 88400 nM, the GI50 (NCI/ADR-RES ovarian) was 207 nM and the TGI (NCI/ADR-RES ovarian) was 15000 nM. For the same compound, the GI50 (OVCAR-8 ovarian) was 462 nM, the TGI (OVCAR-8 ovarian) was 16500 nM and the GI50 (CAKI-1 renal) was 160 nM. For the same compound, the TGI (CAKI-1 renal) was 17300 nM, the GI50 (SK-MEL-28 melanoma) was 4950 nM and the TGI (SK-MEL-28 melanoma) was 35000 nM. For the same compound, the GI50 (SK-MEL-5 melanoma) was 422 nM, the TGI (SK-MEL-5 melanoma) was 7300 nM and the GI50 (CCRF-CEM leukemia) was 286 nM. It also gave a TGI (CCRF-CEM leukemia) of 13700 nM, a GI50 (UACC-62 melanoma) of 186 nM and a TGI (UACC-62 melanoma) of 16600 nM. For the same compound, the GI50 (MALME-3M melanoma) was 12200 nM, the TGI (MALME-3M melanoma) was 33000 nM and the GI50 (LOX IMVI melanoma) was 558 nM. For the same compound, the TGI (LOX IMVI melanoma) was 16600 nM, the GI50 (786-0 renal) was 524 nM and the TGI (786-0 renal) was 16500 nM. For the same compound, the GI50 (MCF7 breast) was 208 nM, the TGI (MCF7 breast) was 26000 nM and the GI50 (SF-539 CNS) was 272 nM. The TGI (SF-539 CNS) was 1660 nM, the GI50 (ACHN renal) was 798 nM and the TGI (ACHN renal) was 15500 nM. The GI50 (UACC-257 melanoma) was 1440 nM, the TGI (UACC-257 melanoma) was 27600 nM and the GI50 (OVCAR-4 ovarian) was 6910 nM. The TGI (OVCAR-4 ovarian) was 65900 nM, the GI50 (A549 NSCLC) was 1000 nM and the TGI (A549 NSCLC) was > 100000 nM. The GI50 (NCI-H460 lung) was 353 nM, the TGI (NCI-H460 lung) was 11600 nM and the GI50 (KM12 colon) was 347 nM. The TGI (KM12 colon) was 13100 nM, the GI50 (NCI-H23 lung) was 804 nM and the TGI (NCI-H23 lung) was 23600 nM. It also gave a GI50 (RPMI-8226 leukemia) of 415 nM, a TGI (RPMI-8226 leukemia) of 12600 nM and a GI50 (TK-10 renal) of 13600 nM. The TGI (TK-10 renal) was 59700 nM, the GI50 (OVCAR-3 ovarian) was 193 nM and the TGI (OVCAR-3 ovarian) was 787 nM. For the same compound, the GI50 (HL-60(TB) leukemia) was 155 nM, the TGI (HL-60(TB) leukemia) was 865 nM and the GI50 (RXF 393 renal) was 215 nM. For the same compound, the TGI (RXF 393 renal) was 1240 nM, the GI50 (SW-620 colon) was 176 nM and the TGI (SW-620 colon) was > 57900 nM. It also gave a GI50 (HOP-62 NSCLC) of 416 nM, a TGI (HOP-62 NSCLC) of 20100 nM and a GI50 (SF-268 CNS) of 1190 nM. The TGI (SF-268 CNS) was 27900 nM, the GI50 (SNB-19 CNS) was 712 nM and the TGI (SNB-19 CNS) was 70400 nM. For the same compound, the GI50 (HCC-2998 colon) was 650 nM, the TGI (HCC-2998 colon) was 10900 nM and the GI50 (NCI-H522 lung) was 188 nM. For the same compound, the TGI (NCI-H522 lung) was 754 nM, the GI50 (COLO 205 colon) was 289 nM and the TGI (COLO 205 colon) was 1310 nM. It also gave a GI50 (MDA-MB-435) of 132 nM, a TGI (MDA-MB-435) of 477 nM and a GI50 (M14 melanoma) of 288 nM. The TGI (M14 melanoma) was 18600 nM, the GI50 (HCT-116 colon) was 267 nM and the TGI (HCT-116 colon) was 12100 nM. For the same compound, the GI50 (SN12C renal) was 715 nM, the TGI (SN12C renal) was 15300 nM and the GI50 (MOLT-4 leukemia) was 424 nM. The TGI (MOLT-4 leukemia) was 33200 nM, the GI50 (HS 578T breast) was 234 nM and the TGI (HS 578T breast) was 3800 nM. For the same compound, the GI50 (SF-295 CNS) was 469 nM, the TGI (SF-295 CNS) was 15100 nM and the GI50 (PC-3 prostate) was 471 nM. The TGI (PC-3 prostate) was > 100000 nM, the GI50 (IGROV1 ovarian) was 700 nM and the TGI (IGROV1 ovarian) was 24400 nM. For the same compound, the GI50 (MDA-MB-231 breast) was 632 nM, the TGI (MDA-MB-231 breast) was 8110 nM and the GI50 (HT29 colon) was 300 nM. The TGI (HT29 colon) was 4830 nM, the GI50 (DU-145 prostate) was 541 nM and the TGI (DU-145 prostate) was 19500 nM. The GI50 (U251 CNS) was 411 nM, the TGI (U251 CNS) was 13000 nM and the GI50 (HCT-15 colon) was 172 nM. It also gave a TGI (HCT-15 colon) of 24400 nM, a GI50 (SK-OV-3 ovarian) of 368 nM and a TGI (SK-OV-3 ovarian) of 47200 nM. The GI50 (OVCAR-5 ovarian) was 901 nM, the TGI (OVCAR-5 ovarian) was 30700 nM and the GI50 (SR leukemia) was 84.9 nM. The TGI (SR leukemia) was 8680 nM, the GI50 (SK-MEL-2 melanoma) was 191 nM and the TGI (SK-MEL-2 melanoma) was 931 nM. The GI50 (NCI-H226 lung) was 1520 nM, the TGI (NCI-H226 lung) was 17700 nM and the GI50 (BT-549 breast) was 847 nM. The TGI (BT-549 breast) was 18200 nM, the GI50 (SNB-75 CNS) was 148 nM and the TGI (SNB-75 CNS) was 710 nM. It also gave a GI50 (A498 renal) of 7450 nM and a TGI (A498 renal) of 25500 nM.
